# Measured values published in patent US6518278B1, “Carcinostatic substance for compatible administration, process of administrating same and process of rapidly inspecting same” (Debio Pharm S.A., priority 1994, dated 2003).
# Values joined by “and” are separate entries in the source; they are usually repeats but may differ in a detail not shown here. Identical values can stand only once. “Also recorded” adds a separate entry of the source.
# Tested on: human leutecyte strain cell (RPMI-8402)
# Experiment: Extinction effect of compatible administration of l-OHP and a compatible agent on tumor cells (compatible efficiency OE)
# Format: cell-based
# Details: for Compatible Effects of l-OHP and Compatible Agent, Simultaneous Administration: both added day 1
# Procedure: In the evaluation of the extinction effect of the tumor cells of the respective combinations, a pure extinction effect produced by the compatible administration of the compatible agent and the l-OHP is calculated by subtracting an extinction effect of a control (no carcinostatic substance is employed).
# The compatibly administration effect is calculated by employing an Equation (1) described later. When the value (%) calculated by this Equation is between 85 and 115%, the compatible administration effect is evaluated to be an additive effect. When the value is below 85%, it is evaluated to be below the additive effect. When the value is over 115%, it is evaluated to be a synergistic effect, ±15% is a reliability limit or a measurement error.
# A target tumor cell was a human leutecyte strain cell (RPMI-8402 of Gibuko K.K.). To these cells was added blood serum of a cow embryo (15%, Gibuko K.K.) to prepare a cell floating liquid of which the number of the cells was 10^6/ml in a cultivation bottle (tradename; Sumiron of Sumitomo Bakelite o., Ltd.) having a volume of 6 ml. A plenty of the cultivation bottles having the cell floating liquid therein were prepared, and the following experiments were conducted while selecting one kind of a compatible agent among cisplatin, 5-FU, irinotecane, adriamycin, etoposide, mitomycin, mitoxantrone, bleomycin, vincristin and vindecin. The time schedules of the controls (no addition of medicines, addition of only the l-OHP and addition of only a compatible agent, and specified in the below items (1) to (4)) and of the compatible administration of the compatible agent and the l-OHP are shown in FIG. 10.
# (1) No medicine was added (control).
# (2) Only the l-OHP was added at a second day.
# (3) A large amount of compatible agents were added at a first day ([…] of the cisplatin, 10 μg/ml of the 5-FU, 0.05 μg/ml of the adriamycin and 1 μg/ml of the etoposide, and for the comparison purpose, 0.05 μg/ml of the vincristin and 0.06 μg/ml of the vindecin). The adding amount of the irinotecano was fixed to 10 μg/ml, and the addition amount of the l-OHP was 5 μg/ml.
# (4) A small amount of compatible agents were added at a first day (0.5 μg/ml of the cisplatin, 5 μg/ml of the 5-FU, 0.01 μg/ml of the adriamycin and 0.5 μg/ml of the etoposide, and for the comparison purpose, 0.01 μg/ml of the vincristin and 0.01 μg/ml of the vindecin). The adding amount of the irinotecane was fixed to 10 μg/ml, and the addition amount of the l-OHP was 1 μg/ml.
# (5) The l-OHP and a large amount (the same as that of the above item (3) and so forth in the following items) of the compatible agents were simultaneously added at a first day.
# (6) The l-OHP and a small amount (the same as that of the above item (4) and so forth in the following items) of the compatible agents were simultaneously added at a first day.
# (7) The l-OHP was added at a first day and a large amount of the compatible agents were added at a second day.
# (8) The l-OHP was added at a first day and a small amount of the compatible agents were added at a second day.
# (9) The l-OHP was added at a first day and a large amount of the compatible agents were added at a third day.
# (10) The l-OHP was added at a first day and a small amount of the compatible agents were added at a third day.
# (11) The l-OHP was added at a first day and a large amount of the compatible agents were added at a fourth day.
# (12) The l-OHP was added at a first day and a small amount of the compatible agents were added at a fourth day.
# (13) A large amount of the compatible agents were added at a first day and the l-OHP was added at a second day.
# (14) A small amount of the compatible agents were added at a first day and the l-OHP was added at a second day.
# (15) A large amount of the compatible agents were added at a first day and the l-OHP was added at a third day.
# (16) A small amount of the compatible agents were added at a first day and the l-OHP was added at a third day.
# [1] = larger dosage of compatible agent (μg/ml: cisplatin 1, 5-FU 10, irinotecane 10, adriamycin 0.05, vincristin 0.05, vindecin 0.05, etoposide 1, bleomycin 10, mitoxantrone 0.1, mitomycine 1), l-OHP 1 μg/ml (5 μg/ml with irinotecane) added day 1
# [2] = larger dosage of compatible agent (μg/ml: cisplatin 1, 5-FU 10, irinotecane 10, adriamycin 0.05, vincristin 0.05, vindecin 0.05, etoposide 1, bleomycin 10, mitoxantrone 0.1, mitomycine 1), l-OHP 1 μg/ml (5 μg/ml with irinotecane)
# [3] = larger dosage of compatible agent added day 1 (μg/ml: cisplatin 1, 5-FU 10, irinotecane 10, adriamycin 0.05, vincristin 0.05, vindecin 0.05, etoposide 1, bleomycin 10, mitoxantrone 0.1, mitomycine 1), l-OHP 1 μg/ml (5 μg/ml with irinotecane)
# [4] = smaller dosage of compatible agent (μg/ml: cisplatin 0.5, 5-FU 5, irinotecane 10, adriamycin 0.01, vincristin 0.01, vindecin 0.01, etoposide 0.5, bleomycin 1, mitoxantrone 0.05, mitomycine 0.5), l-OHP 1 μg/ml added day 1
# [5] = smaller dosage of compatible agent (μg/ml: cisplatin 0.5, 5-FU 5, irinotecane 10, adriamycin 0.01, vincristin 0.01, vindecin 0.01, etoposide 0.5, bleomycin 1, mitoxantrone 0.05, mitomycine 0.5), l-OHP 1 μg/ml
# [6] = smaller dosage of compatible agent added day 1 (μg/ml: cisplatin 0.5, 5-FU 5, irinotecane 10, adriamycin 0.01, vincristin 0.01, vindecin 0.01, etoposide 0.5, bleomycin 1, mitoxantrone 0.05, mitomycine 0.5), l-OHP 1 μg/ml
Molecule,"compatible administration effect with l-OHP, summary in words","Compatible Effects of l-OHP and Compatible Agent, Time Lag Administration, Addition Administration of Compatible Agent day 2 [1]","Compatible Effects of l-OHP and Compatible Agent, Time Lag Administration, Addition Administration of Compatible Agent day 3 [1]","Compatible Effects of l-OHP and Compatible Agent, Time Lag Administration, Addition Administration of Compatible Agent day 4 [1]","Compatible Effects of l-OHP and Compatible Agent, Simultaneous Administration [2]","Compatible Effects of l-OHP and Compatible Agent, Time Lag Administration, Addition Administration of l-OHP day 2 [3]","Compatible Effects of l-OHP and Compatible Agent, Time Lag Administration, Addition Administration of l-OHP day 3 [3]","Compatible Effects of l-OHP and Compatible Agent, Time Lag Administration, Addition Administration of l-OHP day 4 [3]","Compatible Effects of l-OHP and Compatible Agent, Time Lag Administration, Addition Administration of Compatible Agent day 2 [4]","Compatible Effects of l-OHP and Compatible Agent, Time Lag Administration, Addition Administration of Compatible Agent day 3 [4]","Compatible Effects of l-OHP and Compatible Agent, Time Lag Administration, Addition Administration of Compatible Agent day 4 [4]","Compatible Effects of l-OHP and Compatible Agent, Simultaneous Administration [5]","Compatible Effects of l-OHP and Compatible Agent, Time Lag Administration, Addition Administration of l-OHP day 2 [6]","Compatible Effects of l-OHP and Compatible Agent, Time Lag Administration, Addition Administration of l-OHP day 3 [6]","Compatible Effects of l-OHP and Compatible Agent, Time Lag Administration, Addition Administration of l-OHP day 4 [6]","compatible administration effect with l-OHP, summary in words (listed as 6-FU)","effect as % of the expected value (compatible efficiency) (simultaneous administration with l-OHP, which dosage gives which value is not given)"
"CO[C@@]12[C@H](COC(N)=O)C3=C(C(=O)C(C)=C(N)C3=O)N1C[C@@H]1N[C@@H]12 [mitomycine, mitomycin]",the additive effect or the synergistic effect regardless of the administration method and the dosage in almost all the cases; also recorded: synergistic effects can be obtained in most combinations when the l-OHP is administrated before to the mitomycin,◯ (◯: Additive Effect),• (•: Synergistic Effect),• (•: Synergistic Effect),◯ (◯: Additive Effect),◯ (◯: Additive Effect),Δ (Δ: Below Additive Effect),Δ (Δ: Below Additive Effect),◯ (◯: Additive Effect),• (•: Synergistic Effect),• (•: Synergistic Effect),◯ (◯: Additive Effect),◯ (◯: Additive Effect),Δ (Δ: Below Additive Effect),◯ (◯: Additive Effect),,
O=C1c2c(O)ccc(O)c2C(=O)c2c(NCCNCCO)ccc(NCCNCCO)c21 [mitoxantrone],the additive effect or the synergistic effect regardless of the administration method and the dosage in almost all the cases; also recorded: synergistic effects can be obtained in all the combinations when a small amount of the mitoxantrone is employed and the l-OHP is added later,• (•: Synergistic Effect),◯ (◯: Additive Effect),Δ (Δ: Below Additive Effect),◯ (◯: Additive Effect),◯ (◯: Additive Effect),◯ (◯: Additive Effect),◯ (◯: Additive Effect),◯ (◯: Additive Effect),• (•: Synergistic Effect),Δ (Δ: Below Additive Effect),• (•: Synergistic Effect),• (•: Synergistic Effect),• (•: Synergistic Effect),• (•: Synergistic Effect),,
"O=c1[nH]cc(F)c(=O)[nH]1 [5-FU, 5-fluorouracil]",twice an expected value; also recorded: synergistic effects can be obtained in almost all the administration conditions,• (•: Synergistic Effect),• (•: Synergistic Effect),• (•: Synergistic Effect),• (•: Synergistic Effect),• (•: Synergistic Effect),• (•: Synergistic Effect),• (•: Synergistic Effect),◯ (◯: Additive Effect),• (•: Synergistic Effect),• (•: Synergistic Effect),• (•: Synergistic Effect),• (•: Synergistic Effect),◯ (◯: Additive Effect),• (•: Synergistic Effect),the additive effect or the synergistic effect regardless of the administration method and the dosage in almost all the cases,180% and 150%
bleomycin,the additive effect or the synergistic effect regardless of the administration method and the dosage in almost all the cases; also recorded: synergistic effects can be obtained in most combinations when the l-OHP is added later at a third day and a fourth day,Δ (Δ: Below Additive Effect),◯ (◯: Additive Effect),• (•: Synergistic Effect),Δ (Δ: Below Additive Effect),Δ (Δ: Below Additive Effect),• (•: Synergistic Effect),• (•: Synergistic Effect),Δ (Δ: Below Additive Effect),• (•: Synergistic Effect),Δ (Δ: Below Additive Effect),• (•: Synergistic Effect),◯ (◯: Additive Effect),• (•: Synergistic Effect),◯ (◯: Additive Effect),,
